Data taken from US4731109A, “Herbicidal 2-haloacetanilides” (Monsanto Company, priority 1982, dated 1988).
Read-outs that look alike come from different tables or passages of the source.

Legend:
Assay type in all cases: in vivo
lima beans = assay: Greenhouse pre-emergence GR15/GR85 selectivity test; conditions: Table XVI
Text: (§1) A good grade of top soil is placed in aluminum pans and compacted to a depth of three-eighths to one-half inch from the top of the pan. On the top of the soil is placed a number of seeds or vegetative propagules of various plant species. The soil required to level fill the pans after seeding or adding vegetative propagules is weighed into a pan. The soil and a known amount of the active ingredient applied in a solvent or as a wettable powder suspension are thoroughly mixed, and used to cover the prepared pans. After treatment, the pans are given an initial overhead irrigation of eater, equivalent to one-fourth inch (0.64 cm) rainfall, then watered by subirrigation as need to give adequate moisture for germination and growth. As an alternative procedure, the overhead irrigation may be omitted. Observations are made about 2-3 weeks after seeding and treatment.
(§2) In the discussion and tables of data below, reference is made to herbicide application rates symbolized as "GR15 " and "GR85 "; these rates are given in kilograms per hectare (kg/ha) which are convertible into pounds per acre (lbs/A) by dividing the kg/ha rate by 1.12.
(§3) A further guide to the effectiveness of a chemical as a selective herbicide is the "selectivity factor" ("SF") for a herbicide in given crops and weeds. The selectivity factor is a measure of the relative degree of crop safety and weed injury and is expressed in terms of the GR15 /GR85 ratio, i.e., the GR15 rate for the crop divided by the GR85 rate for the weed, both rates in kg/ha (lb/A). In the tables below, selectivity factors are shown in parenthesis following the GR85 rate for each weed; the symbol "NS" indicates "non-selective". Marginal or undetermined selectivity is indicated by a dash (--).
(§4) Additionally, pre-emergence herbicidal data from other tests have established that compounds according to this invention also selectively suppress quackgrass, yellow nutsedge and/or other weeds in one or more of the crops cotton, peanuts, bush beans and/or rape. For example, in Table VI are presented data showing the herbicidal selectivity of the compounds of Examples 1 and 2 against quackgrass in rape and snap beans. Unless otherwise noted; greenhouse tests in Table VI and in other tables below involved herbicide treatments by soil incorporation and an initial overhead irrigation followed by subirrigation as described above.
(§5) Additional greenhouse tests were made to test certain compounds of this invention against a plurality of problem weeds in peanuts and lima beans; except for fall panicum, the test weeds are particularly resistant weeds; the test data is set forth in Table XVI.
(§6) In Table XVI, the selectivity factors for the test compounds for each weed in lima beans is shown as the first or upper value in parenthesis and the selectivity factors for each weed in peanuts is shown as the second or lower value in parenthesis for each compound. For example, the selectivity factor for the compound of Example 3 for seedling johnsongrass in lima beans is 2.1 and in peanuts, >4.9; the selectivity factor for Texas panicum in lima beans is 1.1 and in peanuts, >2.6, etc.

peanuts [1] = assay: as above; conditions: Table XVI
Text: as §1, §2, §3, §4, §5, §6

Sweet Corn = assay: Field pre-emergence selectivity test; conditions: Zea mays, 1008 h, 6 weeks, read-out: Percent Inhibition; for inhibition at 560 g/ha: 0.56 Kg/Ha; for inhibition at 1120 g/ha: 1.12 Kg/Ha; for inhibition at 2240 g/ha: 2.24 Kg/Ha; for inhibition at 4480 g/ha: 4.48 Kg/Ha
Text: (§7) The seeds were planted in a fine seedbed of silt loam of intermediate moisture. The seeds were planted at a depth of two inches (5.08 cm). First rainfall (0.2"; 0.51 cm) occurred the day following treatment, the second rain (0.25"; […]) two days after treatment; cumulative rainfall 22 days after treatment was 1.8" (4.57 cm). Observations were made 6 weeks after treatment.

Lambsquarters = assay: Field pre-emergence selectivity test; conditions: Chenopodium album, 1008 h, 6 weeks, read-out: Percent Inhibition; for inhibition at 560 g/ha: 0.56 Kg/Ha; for inhibition at 1120 g/ha: 1.12 Kg/Ha; for inhibition at 2240 g/ha: 2.24 Kg/Ha; for inhibition at 4480 g/ha: 4.48 Kg/Ha
Text: as §7

cotton = assay: Field pre-emergence selectivity test; conditions: Gossypium hirsutum, 1008 h, 6 weeks, read-out: Percent Inhibition; for inhibition at 560 g/ha: 0.56 Kg/Ha; for inhibition at 1120 g/ha: 1.12 Kg/Ha; for inhibition at 2240 g/ha: 2.24 Kg/Ha; for inhibition at 4480 g/ha: 4.48 Kg/Ha
Text: as §7

peanuts [2] = assay: Field pre-emergence selectivity test; conditions: 1008 h, 6 weeks, read-out: Percent Inhibition; for inhibition at 560 g/ha: 0.56 Kg/Ha; for inhibition at 1120 g/ha: 1.12 Kg/Ha; for inhibition at 2240 g/ha: 2.24 Kg/Ha; for inhibition at 4480 g/ha: 4.48 Kg/Ha
Text: as §7

soybeans = assay: Greenhouse pre-emergence GR15/GR85 selectivity test; conditions: for GR15 Rate: Table XIV
Summary of the method: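 Active ingredient mixed into cover soil over seeded pans (pre-emergence soil incorporation), initial overhead irrigation equal to 0.64 cm rainfall, then subirrigation. Scored about 2-3 weeks after seeding; GR15 (crop) and GR85 (weed) rates in kg/ha, selectivity factor = crop GR15 / weed GR85.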

snap beans = assay: as above; conditions: Table VI
Text: as §1, §2
A further guide to the effectiveness of a chemical as a selective herbicide is the "selectivity factor" ("SF") for a herbicide in given crops and weeds. […]

rape = assay: Field pre-emergence selectivity test; conditions: 1008 h, 6 weeks, read-out: Percent Inhibition; for inhibition at 560 g/ha: 0.56 Kg/Ha; for inhibition at 1120 g/ha: 1.12 Kg/Ha; for inhibition at 2240 g/ha: 2.24 Kg/Ha; for inhibition at 4480 g/ha: 4.48 Kg/Ha
Description: The compound of Examples 1 and 2 was also tested in the field to determine its pre-emergence selectivity against foxtail (spp), barnyardgrass, wild proso millet, smartweed, lambsquarters and pigweed in a plurality of crops; the data (representing three replicate runs) are shown in Table VII for both surface application (S.A.) and soil incorporation (PPI, i.e., preplant incorporation) of the herbicide. The seeds were planted in a fine seedbed of silt loam of intermediate moisture. The seeds were planted at a depth of two inches (5.08 cm). First rainfall (0.2"; 0.51 cm) occurred the day following treatment, the second rain (0.25"; […]) two days after treatment; cumulative rainfall 22 days after treatment was 1.8" (4.57 cm). Observations were made 6 weeks after treatment.

With CCCOCN(C(=O)CCl)c1c(C)cccc1C(F)(F)F [Example 3, N--(n-propoxymethyl)-2'-trifluoromethyl-6'-methyl-2-chloroacetanilide] the “GR15 Rate” value (lima beans) was 0.49 Kg/Ha and the “GR15 Rate” value (peanuts [1]) was greater than 1.12 Kg/Ha.
With Cc1cccc(C(F)(F)F)c1N(COCC(C)C)C(=O)CCl [Example 5, N--(isobutoxymethyl)-2'-trifluoromethyl-6'-methyl-2-chloroacetanilide] the “GR15 Rate” value (lima beans) was greater than 1.12 Kg/Ha and the “GR15 Rate” value (peanuts [1]) was 0.56 Kg/Ha.
With CCOCN(C(=O)CCl)c1c(C)cccc1C(F)(F)F [Example 1, N-(ethoxymethyl)-2'-trifluoromethyl-6'-methyl-2-chloroacetanilide] the inhibition at 560 g/ha (Sweet Corn; P.P.I.) was 0%, the inhibition at 1120 g/ha (Sweet Corn; P.P.I.) was 3% and the inhibition at 2240 g/ha (Sweet Corn; P.P.I.) was 27%. It also gave an inhibition at 4480 g/ha (Sweet Corn; P.P.I.) of 40%, an inhibition at 560 g/ha (Sweet Corn; S.A.) of 0% and an inhibition at 1120 g/ha (Sweet Corn; S.A.) of 0%. It also gave an inhibition at 2240 g/ha (Sweet Corn; S.A.) of 7%, an inhibition at 560 g/ha (Lambsquarters; S.A.) of 0% and an inhibition at 1120 g/ha (Lambsquarters; S.A.) of 13%. For the same molecule, the inhibition at 2240 g/ha (Lambsquarters; S.A.) was 40%, the inhibition at 4480 g/ha (Lambsquarters; S.A.) was 67% and the inhibition at 560 g/ha (cotton; P.P.I.) was 13%. The inhibition at 1120 g/ha (cotton; P.P.I.) was 32%, the inhibition at 2240 g/ha (cotton; P.P.I.) was 37% and the inhibition at 4480 g/ha (cotton; P.P.I.) was 82%. It also gave an inhibition at 560 g/ha (cotton; S.A.) of 0%, an inhibition at 1120 g/ha (cotton; S.A.) of 13% and an inhibition at 2240 g/ha (cotton; S.A.) of 20%. The inhibition at 4480 g/ha (cotton; S.A.) was 25%, the inhibition at 560 g/ha (peanuts [2]; P.P.I.) was 17% and the inhibition at 1120 g/ha (peanuts [2]; P.P.I.) was 13%. The inhibition at 2240 g/ha (peanuts [2]; P.P.I.) was 15%, the inhibition at 4480 g/ha (peanuts [2]; P.P.I.) was 28% and the inhibition at 560 g/ha (peanuts [2]; S.A.) was 0%. It also gave an inhibition at 1120 g/ha (peanuts [2]; S.A.) of 0%, an inhibition at 2240 g/ha (peanuts [2]; S.A.) of 8% and an inhibition at 4480 g/ha (peanuts [2]; S.A.) of 22%. For the same molecule, the “GR15 Rate” value (soybeans) was greater than 1.1 Kg/Ha, the GR15 (soybeans; soybeans/purple nutsedge) was 1.1 kg/ha and the “GR15 Rate” value (snap beans) was 0.90 Kg/Ha. The inhibition at 560 g/ha (rape; P.P.I.) was 0%, the inhibition at 1120 g/ha (rape; P.P.I.) was 0% and the inhibition at 2240 g/ha (rape; P.P.I.) was 15%. For the same molecule, the inhibition at 4480 g/ha (rape; P.P.I.) was 40%, the inhibition at 560 g/ha (rape; S.A.) was 0% and the inhibition at 1120 g/ha (rape; S.A.) was 0%. For the same molecule, the inhibition at 2240 g/ha (rape; S.A.) was 5% and the inhibition at 4480 g/ha (rape; S.A.) was 33%.
With CCOCN(C(=O)CCl)c1c(CC)cccc1C(F)(F)F [Example 9, N--(ethoxymethyl)-2'-trifluoromethyl-6'-ethyl-2-chloroacetanilide] the “GR15 Rate” value (lima beans) was 0.75 Kg/Ha and the “GR15 Rate” value (peanuts [1]) was 0.90 Kg/Ha.
In the case of CCCOCN(C(=O)CCl)c1c(CC)cccc1C(F)(F)F [Example 10, N--(n-propoxymethyl)-2'-trifluoromethyl-6'-ethyl-2-chloroacetanilide], the “GR15 Rate” value (lima beans) is reported as greater than 1.12 Kg/Ha and the “GR15 Rate” value (peanuts [1]) is reported as 0.98 Kg/Ha.
For Cc1cccc(C(F)(F)F)c1N(COC(C)C)C(=O)CCl [Example 4, N--(isopropoxymethyl)-2'-trifluoromethyl-6'-methyl-2-chloroacetanilide], the “GR15 Rate” value (lima beans) was greater than 1.12 Kg/Ha and the “GR15 Rate” value (peanuts [1]) was 0.98 Kg/Ha.
With CC(C)OCN(C(=O)CCl)c1ccccc1C(F)(F)F [Example 2, N--(isopropoxymethyl)-2'-trifluoromethyl-2-chloroacetanilide] the inhibition at 560 g/ha (Sweet Corn; P.P.I.) was 0%, the inhibition at 1120 g/ha (Sweet Corn; P.P.I.) was 0% and the inhibition at 2240 g/ha (Sweet Corn; P.P.I.) was 13%. For the same molecule, the inhibition at 4480 g/ha (Sweet Corn; P.P.I.) was 35%, the inhibition at 560 g/ha (Sweet Corn; S.A.) was 0% and the inhibition at 1120 g/ha (Sweet Corn; S.A.) was 0%. The inhibition at 2240 g/ha (Sweet Corn; S.A.) was 0%, the inhibition at 4480 g/ha (Sweet Corn; S.A.) was 23% and the inhibition at 2240 g/ha (Lambsquarters; P.P.I.) was 95%. The inhibition at 4480 g/ha (Lambsquarters; P.P.I.) was 100%, the inhibition at 560 g/ha (Lambsquarters; S.A.) was 0% and the inhibition at 1120 g/ha (Lambsquarters; S.A.) was 7%. For the same molecule, the inhibition at 2240 g/ha (Lambsquarters; S.A.) was 20%, the inhibition at 4480 g/ha (Lambsquarters; S.A.) was 62% and the inhibition at 560 g/ha (cotton; P.P.I.) was 10%. For the same molecule, the inhibition at 1120 g/ha (cotton; P.P.I.) was 23%, the inhibition at 2240 g/ha (cotton; P.P.I.) was 30% and the inhibition at 4480 g/ha (cotton; P.P.I.) was 75%. For the same molecule, the inhibition at 560 g/ha (cotton; S.A.) was 0%, the inhibition at 1120 g/ha (cotton; S.A.) was 8% and the inhibition at 2240 g/ha (cotton; S.A.) was 8%. It also gave an inhibition at 4480 g/ha (cotton; S.A.) of 43%, an inhibition at 560 g/ha (peanuts [2]; P.P.I.) of 0% and an inhibition at 1120 g/ha (peanuts [2]; P.P.I.) of 5%. It also gave an inhibition at 2240 g/ha (peanuts [2]; P.P.I.) of 17%, an inhibition at 4480 g/ha (peanuts [2]; P.P.I.) of 45% and an inhibition at 560 g/ha (peanuts [2]; S.A.) of 0%. It also gave an inhibition at 1120 g/ha (peanuts [2]; S.A.) of 0%, an inhibition at 2240 g/ha (peanuts [2]; S.A.) of 5% and an inhibition at 4480 g/ha (peanuts [2]; S.A.) of 20%. For the same molecule, the “GR15 Rate” value (soybeans) was greater than 1.1 Kg/Ha, the “GR15 Rate” value (snap beans) was 2.2 Kg/Ha and the inhibition at 560 g/ha (rape; P.P.I.) was 0%. For the same molecule, the inhibition at 1120 g/ha (rape; P.P.I.) was 15%, the inhibition at 2240 g/ha (rape; P.P.I.) was 27% and the inhibition at 4480 g/ha (rape; P.P.I.) was 35%. For the same molecule, the inhibition at 560 g/ha (rape; S.A.) was 0%, the inhibition at 1120 g/ha (rape; S.A.) was 5% and the inhibition at 2240 g/ha (rape; S.A.) was 0%. For the same molecule, the inhibition at 4480 g/ha (rape; S.A.) was 30%.
